One test concerns the target Integrin alpha-V/beta-3 (Homo sapiens, UniProt P05106+P06756). The test is described as follows: Inhibition of vitronectin binding to recombinant human integrin alphaV (Phe31 to Val992 residues) beta3 (Gly27 to Asp718 residues) expressed in CHO cells by ELISA based solid phase binding assay. In kind it is cell-based.
The target in another test is Integrin alpha-V/beta-5 (Homo sapiens, UniProt P06756+P18084). The test is described as follows: Inhibition of vitronectin binding to recombinant human integrin alphaV (Phe31 to Val992 residues) beta5 (Gly24 to Asn719 residues) expressed in CHO cells by ELISA based solid phase binding assay. The format is cell-based.
The target in a further test is Integrin alpha-V/beta-6 (Homo sapiens, UniProt P06756+P18564). The test is described as follows: Inhibition of latency-associated peptide/TGF-beta binding to recombinant human integrin alphaV (Phe31 to Val992 residues) beta6 (Gly22 to Asn707 residues) expressed in CHO cells by ELISA based solid phase binding assay. In kind it is cell-based.
For the next test, the target named is Integrin alpha-V/beta-8 (Homo sapiens, UniProt P06756+P26012). Kind of test: Inhibition of latency-associated peptide/TGF-beta binding to recombinant human integrin alphaV (Phe31 to Val992 residues) beta8 (Glu43 to Arg684 residues) expressed in CHO cells by ELISA based solid phase binding assay. The format is cell-based.
In the next test the target is Integrin alpha-5/beta-1 (Homo sapiens, UniProt P05556+P08648). The test is described as follows: Inhibition of fibronectin binding to recombinant human integrin alpha5 (Phe42 to Tyr995 residues) beta1 (Gln21 to Asp728 residues) expressed in CHO cells by ELISA based solid phase binding assay. In kind it is cell-based.
The target of test [1] is Integrin alpha-IIb/beta-3 (Homo sapiens, UniProt P05106+P08514). Kind of test: Inhibition of fibrinogen binding to human platelet integrin alpha2b beta3 by ELISA based solid phase binding assay.
Test [2] concerns HUVEC. Kind of test: Antiproliferative activity against HUVEC assessed as effect on cell viability up to 30 uM after 24 hrs by trypan blue assay. In kind it is functional, cell-based. The settings on record: Homo sapiens.
Test [3] deals with HUVEC. Kind of test: Inhibition of tube formation in HUVEC up to 30 uM after 24 hrs […]. The format is functional, cell-based. The conditions noted are these: Homo sapiens.

Calls of active or inactive are those of the source. The calls are words filed in the database; no cut-off is given here.

`CC1(C)NC(=O)[C@@H](Cc2ccccc2)NC(=O)[C@H](CC(=O)O)NC(=O)CNC(=O)[C@H](CCCNC(=N)N)NC1=O`: the IC50 at Integrin alpha-V/beta-3 was 5.5 nM; on Integrin alpha-V/beta-5, 50 nM; at Integrin alpha-V/beta-6, 378 nM; on Integrin alpha-V/beta-8, 806 nM; at Integrin alpha-5/beta-1, 141 nM; in test [1] it was > 10000 nM. Further, the outcome with HUVEC [2] was inactive. The inhibition result in the test with HUVEC [3] is “inactive”.
As to `N=C(N)NCCC[C@@H]1NC(=O)CC2(CCCCC2)CNC(=O)[C@@H](Cc2ccccc2)NC(=O)[C@H](CC(=O)O)NC(=O)CNC1=O`, the IC50 at Integrin alpha-V/beta-3 was 9.9 nM; on Integrin alpha-V/beta-5, 303 nM; on Integrin alpha-V/beta-6, 1970 nM; at Integrin alpha-V/beta-8 it was 3950 nM; at Integrin alpha-5/beta-1, 623 nM; in test [1], 657 nM. Moreover, the result in the test on HUVEC [2] was inactive. In addition, in the test on HUVEC [3], the inhibition result is “inactive”.
For `COc1c2cccc1C(=O)N[C@@H](CCCNC(=N)N)C(=O)NCC(=O)N[C@@H](CC(=O)O)C(=O)N[C@H](Cc1ccccc1)C(=O)N2`, the IC50 was found to be 72 nM on Integrin alpha-V/beta-3; 4930 nM at Integrin alpha-V/beta-5; 709 nM at Integrin alpha-V/beta-6; 6880 nM on Integrin alpha-V/beta-8; 921 nM on Integrin alpha-5/beta-1; 4860 nM in test [1]. Moreover, the result in the test with HUVEC [2] was inactive. For the same molecule, in the test on HUVEC [3], the inhibition entry is “inactive”.
With `N=C(N)NCCC[C@@H]1NC(=O)C2(CCCCC2)NC(=O)[C@@H](Cc2ccccc2)NC(=O)[C@H](CC(=O)O)NC(=O)CNC1=O`, the IC50 is 3.3 nM at Integrin alpha-V/beta-3; 63 nM on Integrin alpha-V/beta-5; 608 nM at Integrin alpha-V/beta-6; 1500 nM on Integrin alpha-V/beta-8; 87.8 nM on Integrin alpha-5/beta-1; > 10000 nM in test [1]. In addition, the outcome with HUVEC [2] was inactive. The inhibition result in the test on HUVEC [3] was “inactive”.
In the case of `C[Si]1(C)C[C@@H]2C(=O)N[C@@H](CCCNC(=N)N)C(=O)NCC(=O)NC(CC(=O)O)C(=O)NC(Cc3ccccc3)C(=O)N2C1` (single isomer, unassigned), the IC50 at Integrin alpha-V/beta-3 is 11 nM; at Integrin alpha-V/beta-5, 66 nM; at Integrin alpha-V/beta-6, 178 nM; at Integrin alpha-V/beta-8, 319 nM; at Integrin alpha-5/beta-1, 1080 nM; in test [1], > 10000 nM. Further, in the test on HUVEC [2], the result was inactive. For the same molecule, the inhibition entry with HUVEC [3] is “inactive”.
